{"source": "ChEMBL document CHEMBL5523725", "about": "“Fragment-Based Anti-inflammatory Agent Design and Target Identification: Discovery of AF-45 as an IRAK4 Inhibitor to Treat Ulcerative Colitis and Acute Lung Injury” (J Med Chem, 2024)", "key": {"[1]": {"test_system": "RAW264.7", "experiment": "Inhibition of NFkappaB/MAPK signaling pathway in mouse RAW264.7 cells assessed as reduction in LPS-induced p65 phosphorylation at 50 uM by Western blot analysis", "assay_type": "cell-based"}, "[2]": {"test_system": "Mus musculus", "experiment": "Antiinflammatory activity in male C57BL/6 mouse model of DSS-induced ulcerative colitis assessed as reduction in colonic structure destruction at 10 mg/kg, po administered for 11 days with subsequent administration of DSS for 8 days by H and E staining based analysis", "assay_type": "functional, organism-based", "settings": "time 11.0 day"}, "[3]": {"test_system": "Mus musculus", "experiment": "In vivo binding affinity to IRAK4 in DSS-induced ulcerative colitis C57BL/6 mouse colon assessed as thermal stabilization at 10 mg/kg, po administered for 11 days with subsequent administration of DSS for 8 days by CETSA", "assay_type": "functional, organism-based", "settings": "time 11.0 day"}, "[4]": {"test_system": "RAW264.7", "experiment": "Inhibition of NFkappaB/MAPK signaling pathway in mouse RAW264.7 cells assessed as reduction in LPS-induced IkappaBalpha degradation at 50 uM by Western blot analysis", "assay_type": "cell-based"}, "[5]": {"test_system": "RAW264.7", "experiment": "Inhibition of NFkappaB/MAPK signaling pathway in mouse RAW264.7 cells assessed as reduction in LPS-induced JNK phosphorylation at 50 uM by Western blot analysis", "assay_type": "cell-based"}, "[6]": {"test_system": "RAW264.7", "experiment": "Inhibition of NFkappaB/MAPK signaling pathway in mouse RAW264.7 cells assessed as reduction in LPS-induced p38 phosphorylation at 50 uM by Western blot analysis", "assay_type": "cell-based"}, "[7]": {"test_system": "Mus musculus", "experiment": "Antiinflammatory activity in male C57BL/6 mouse model of DSS-induced ulcerative colitis assessed as reduction in macrophage infiltration in colon at 10 mg/kg, po administered for 11 days with subsequent administration of DSS for 8 days by F4/80 labeling based immunohistochemistry analysis", "assay_type": "functional, organism-based", "settings": "time 11.0 day"}, "[8]": {"test_system": "Mus musculus", "experiment": "Antiinflammatory activity in male C57BL/6 mouse model of DSS-induced ulcerative colitis assessed as restoration of protein status at 10 mg/kg, po administered for 11 days with subsequent administration of DSS for 8 days by H and E staining based analysis", "assay_type": "functional, organism-based", "settings": "time 11.0 day"}, "[9]": {"test_system": "Mus musculus", "experiment": "Antiinflammatory activity in male C57BL/6 mouse model of DSS-induced ulcerative colitis assessed as reduction in macrophage infiltration in spleen at 10 mg/kg, po administered for 11 days with subsequent administration of DSS for 8 days by F4/80 labeling based immunohistochemistry analysis", "assay_type": "functional, organism-based", "settings": "time 11.0 day"}, "[10]": {"target": "T1, Interleukin-1 receptor-associated kinase 4 (Mus musculus) (UniProt Q8R4K2)", "T1 sequence (whole entry)": "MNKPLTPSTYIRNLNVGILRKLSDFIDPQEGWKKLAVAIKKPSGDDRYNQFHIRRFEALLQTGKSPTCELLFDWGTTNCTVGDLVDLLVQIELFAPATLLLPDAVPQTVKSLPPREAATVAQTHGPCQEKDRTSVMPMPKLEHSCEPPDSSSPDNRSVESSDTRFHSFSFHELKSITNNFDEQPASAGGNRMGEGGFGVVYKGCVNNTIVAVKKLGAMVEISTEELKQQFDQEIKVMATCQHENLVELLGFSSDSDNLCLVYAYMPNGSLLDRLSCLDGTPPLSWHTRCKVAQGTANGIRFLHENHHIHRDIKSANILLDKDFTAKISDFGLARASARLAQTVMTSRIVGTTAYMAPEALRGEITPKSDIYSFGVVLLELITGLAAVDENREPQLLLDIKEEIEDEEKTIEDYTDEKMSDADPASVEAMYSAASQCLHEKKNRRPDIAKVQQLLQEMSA", "experiment": "Thermal stabilization of IRAK4 in mouse RAW264.7 cells at 10 uM measured after 4 hrs by CETSA", "assay_type": "cell-based"}, "[11]": {"test_system": "Mus musculus", "experiment": "Antiinflammatory activity in male C57BL/6 mouse model of DSS-induced ulcerative colitis assessed as reduction in TNF-alpha level in serum at 10 mg/kg, po administered for 11 days with subsequent administration of DSS for 8 days by ELISA", "assay_type": "functional, organism-based", "settings": "time 11.0 day"}, "[12]": {"test_system": "Mus musculus", "experiment": "Antiinflammatory activity in male C57BL/6 mouse model of DSS-induced ulcerative colitis assessed as reduction in spleen to body weight ratio at 10 mg/kg, po administered for 11 days with subsequent administration of DSS for 8 days", "assay_type": "functional, organism-based", "settings": "time 11.0 day"}, "[13]": {"test_system": "Mus musculus", "experiment": "Anti-colitis activity in male C57BL/6 mouse model of DSS-induced ulcerative colitis assessed as colon length at 10 mg/kg, po administered for 11 days with subsequent administration of DSS for 8 days (reference value: 5.2 cm)", "assay_type": "functional", "settings": "time 11 day"}, "[14]": {"test_system": "Mus musculus", "experiment": "Antiinflammatory activity in male C57BL/6 mouse model of DSS-induced ulcerative colitis assessed as preservation of goblet cells at 10 mg/kg, po administered for 11 days with subsequent administration of DSS for 8 days by H and E staining based analysis", "assay_type": "functional, organism-based", "settings": "time 11.0 day"}, "[15]": {"experiment": "Half life in po dosed rat", "assay_type": "ADME, organism-based", "settings": "in vivo"}, "[16]": {"test_system": "Mus musculus", "experiment": "Antiinflammatory activity in male C57BL/6 mouse model of DSS-induced ulcerative colitis assessed as reduction in IL-6 level in serum at 10 mg/kg, po administered for 11 days with subsequent administration of DSS for 8 days by ELISA", "assay_type": "functional, organism-based", "settings": "time 11.0 day"}}, "note": "Active and inactive are the calls of the source. The calls are words filed in the database; no cut-off is given here."}
{"smiles": "CC[C@@H]1[C@H](F)C(=O)N[C@@H]1COc1nccc2cc(C(N)=O)c(OC)cc12", "note": "[ZIMLOVISERTIB]", "values": [{"measurement": "inhibition", "setting": "[1]", "value": "Active"}, {"measurement": "Activity", "setting": "[2]", "value": "Active"}, {"measurement": "Activity", "setting": "[3]", "value": "inactive"}, {"measurement": "inhibition", "setting": "[4]", "value": "Active"}, {"measurement": "inhibition", "setting": "[5]", "value": "Active"}, {"measurement": "inhibition", "setting": "[6]", "value": "Active"}, {"measurement": "Activity", "setting": "[7]", "value": "Active"}, {"measurement": "Activity", "setting": "[8]", "value": "Active"}, {"measurement": "Activity", "setting": "[9]", "value": "Active"}, {"measurement": "Activity", "setting": "[10]", "value": "Active"}, {"measurement": "Activity", "setting": "[11]", "value": "Active"}, {"measurement": "Activity", "setting": "[12]", "value": "Active"}, {"measurement": "Activity", "setting": "[13]", "value": 5.5, "unit": "cm"}, {"measurement": "Activity", "setting": "[14]", "value": "Active"}, {"measurement": "half-life", "setting": "[15]", "value": 2.8, "unit": "h"}, {"measurement": "Activity", "setting": "[16]", "value": "Active"}]}
